Test results as given in US9987255B2, “5,5-bicyclic oxazole orexin receptor antagonists” (Merck Sharp & Dohme Corp., priority 2014, dated 2018).

What was measured:
[1] = target: human orexin-2 receptor (hOX2R) (Homo sapiens (Human), UniProt O43614); assay: FLIPR Ca2+ flux assay, orexin-2 receptor; format: cell-based; conditions: CHO cells expressing the receptor; agonist 70 pM Ala-6,12 orexin-A
Experimental: The utility of the compounds in accordance with the present invention as orexin receptor OX1R and/or OX2R antagonists may be readily determined without undue experimentation by methodology well known in the art, including the “FLIPR Ca^2+ Flux Assay” (Okumura et al., Biochem. Biophys. Res. Comm. 280:976-981, 2001). In a typical experiment the OX1 and OX2 receptor antagonistic activity of the compounds of the present invention was determined in accordance with the following experimental method. For intracellular calcium measurements, Chinese hamster ovary (CHO) cells expressing the rat orexin-1 receptor or the human orexin-2 receptor, are grown in Iscove's modified DMEM containing 2 mM L-glutamine, […], 1% hypoxanthine-thymidine supplement, 100 U/ml penicillin, 100 μg/ml streptomycin and 10% heat-inactivated fetal calf serum (FCS). The cells are seeded at 20,000 cells/well into Becton-Dickinson black 384-well clear bottom sterile plates coated with poly-D-lysine. All reagents were from GIBCO-Invitrogen Corp. The seeded plates are incubated overnight at 37° C. and 5% CO2. Ala-6,12 human orexin-A as the agonist is prepared as a 1 mM stock solution in 1% bovine serum albumin (BSA) and diluted in assay buffer (HBSS containing 20 mM HEPES, 0.1% BSA and 2.5 mM probenecid, pH7.4) for use in the assay at a final concentration of 70 pM. Test compounds are prepared as 10 mM stock solution in DMSO, then diluted in 384-well plates, first in DMSO, then assay buffer. On the day of the assay, cells are washed 3 times with 100 μl assay buffer and then incubated for 60 min (37° C., 5% CO2) in 60 μl assay buffer containing 1 μM Fluo-4AM ester, 0.02% pluronic acid, and 1% BSA. The dye loading solution is then aspirated and cells are washed 3 times with 100 μl assay buffer. 30 μl of that same buffer is left in each well. Within the Fluorescent Imaging Plate Reader (FLIPR, Molecular Devices), test compounds are added to the plate in a volume of 25 μl, incubated for 5 min and finally 25 μl of agonist is added. Fluorescence is measured for each well at 1 second intervals for 5 minutes and the height of each fluorescence peak is compared to the height of the fluorescence peak induced by 70 pM Ala-6,12 orexin-A with buffer in place of antagonist. For each antagonist, IC50 value (the concentration of compound needed to inhibit 50% of the agonist response) is determined. Alternatively, compound potency can be assessed by a radioligand binding assay (described in Bergman et. al. Bioorg. Med. Chem. Lett. 2008, 18, 1425-1430) in which the inhibition constant (Ki) is determined in membranes prepared from CHO cells expressing either the OX1 or OX2 receptor. The intrinsic orexin receptor antagonist activity of a compound which may be used in the present invention may be determined by these assays.

[2] = target: hOX1R (Homo sapiens, UniProt O43613); assay: FLIPR Ca2+ flux assay, orexin-1 receptor; format: cell-based; conditions: CHO cells expressing the receptor; agonist 70 pM Ala-6,12 orexin-A

Chain of human orexin-2 receptor (hOX2R) (O43614 whole entry): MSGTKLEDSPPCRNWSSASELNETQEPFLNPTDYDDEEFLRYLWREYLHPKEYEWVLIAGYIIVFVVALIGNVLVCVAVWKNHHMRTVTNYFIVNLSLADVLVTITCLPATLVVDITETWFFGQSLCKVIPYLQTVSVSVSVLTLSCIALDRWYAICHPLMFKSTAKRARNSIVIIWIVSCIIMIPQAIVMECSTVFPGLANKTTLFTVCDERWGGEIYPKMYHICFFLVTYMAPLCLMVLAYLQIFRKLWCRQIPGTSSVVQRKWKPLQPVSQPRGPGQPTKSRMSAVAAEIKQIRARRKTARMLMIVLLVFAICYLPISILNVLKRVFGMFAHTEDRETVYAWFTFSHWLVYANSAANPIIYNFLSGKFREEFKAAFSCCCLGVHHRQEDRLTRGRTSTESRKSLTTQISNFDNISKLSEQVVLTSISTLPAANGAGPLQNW

Which IC50 [1] does the source give for `Cc1oc(N2CC3CN(C(=O)c4ccccc4-n4nccn4)CC3C2)nc1C(C)(C)O` (stereo not drawn) [Example 1, (2-(2H-1,2,3-triazol-2-yl)phenyl)(5-(4-(2-hydroxypropan-2-yl)-5-methyloxazol-2-yl)hexahydropyrrolo[3,4-c]pyrrol-2(1H)-yl)methanone] here?
Its IC50 is 27 nM.

And the IC50 [2]?
The IC50 was 6880 nM.

`CCOc1ncccc1C(=O)N1CC2CN(c3nc(C(C)(C)O)c(C)o3)CC2C1` (stereo not drawn) [Example 2, 2-(2-{5-[(2-Ethoxypyridin-3-yl)carbonyl]hexahydropyrrolo[3,4-c]pyrrol-2(1H)-yl}-5-methyl-1,3-oxazol-4-yl)propan-2-ol] was tested. Which IC50 [1] did it give?
Its IC50 is 545 nM.

And the IC50 [2]?
Its IC50 is over 10000 nM.

For `Cc1oc(N2CC3CN(C(=O)c4cccnc4OCC(F)(F)F)CC3C2)nc1C(C)(C)O` (stereo not drawn) [Example 3, 2-{5-methyl-2-[5-{[2-(2,2,2-trifluoroethoxy)pyridin-3-yl]carbonyl}hexahydropyrrolo [3,4-c]pyrrol-2(1H)-yl]-1,3-oxazol-4-yl}propan-2-ol], which IC50 [1] is on record?
Its IC50 is 106 nM.

What about the IC50 [2] of the same molecule?
The IC50 was over 10000 nM.

What does the source list for `Cc1oc(N2CC3CN(C(=O)c4ccccc4OC(F)(F)F)CC3C2)nc1C(C)(C)O` (stereo not drawn) [Example 4, 2-{5-methyl-2-[5-{[2-(trifluoromethoxy)phenyl]carbonyl}hexahydropyrrolo[3,4-c]pyrrol-2(1H)-yl]-1,3-oxazol-4-yl} propan-2-ol]?
IC50 [1]: 604 nM; IC50 [2]: > 10000 nM

`Cc1oc(N2CC3CN(C(=O)c4ncccc4-c4ccccc4)CC3C2)nc1C(C)(C)O` (stereo not drawn) [Example 5, 2-(5-methyl-2-{5-[(3-phenylpyridin-2-yl)carbonyl]hexahydropyrrolo[3,4-c]pyrrol-2(1H)-yl}-1,3-oxazol-4-yl) propan-2-ol] was tested. Which IC50 [1] did it give?
Its IC50 is 583 nM.

What about the IC50 [2] of the same molecule?
The IC50 was over 10000 nM.

For `CCCc1ccccc1C(=O)N1CC2CN(c3nc(C(C)(C)O)c(C)o3)CC2C1` (stereo not drawn) [Example 6, 2-(5-methyl-2-{5-[(2-propylphenyl)carbonyl]hexahydropyrrolo[3,4-c]pyrrol-2(1H)-yl}-1,3-oxazol-4-yl)propan-2-ol], which IC50 [1] is on record?
Its IC50 is 32 nM.

And the IC50 [2]?
The IC50 was over 10000 nM.

Which IC50 [1] does the source give for `Cc1oc(N2CC3CN(C(=O)c4ccccc4OCC(F)(F)F)CC3C2)nc1C(C)(C)O` (stereo not drawn) [Example 7, 2-{5-methyl-2-[5-{[2-(2,2,2-trifluoroethoxy)phenyl]carbonyl}hexahydropyrrolo[3,4-c]pyrrol-2(1H)-yl]-1,3-oxazol-4-yl} propan-2-ol] here?
The IC50 was 165 nM.

And the IC50 [2]?
Its IC50 is over 10000 nM.

Which results are given for `Cc1oc(N2CC3CN(C(=O)c4cccnc4OC(C)C)CC3C2)nc1C(C)(C)O` (stereo not drawn) [Example 8, 2-{5-methyl-2-[5-{[2-(1-methylethoxy)pyriddin-3-yl]carbonyl}hexahydropyrrolo [3,4-c]pyrrol-2(1H)-yl]-1,3-oxazol-4-yl}propan-2-ol]?
IC50 [1]: 126 nM; IC50 [2]: > 10000 nM

For `Cc1oc(N2CC3CN(C(=O)c4cccnc4OCC(F)F)CC3C2)nc1C(C)(C)O` (stereo not drawn) [Example 9, 2-{2-[5-{[2-(2,2-difluoroethoxy)pyridin-3-yl]carbonyl}hexahydropyrrolo [3,4-c]pyrrol-2(1H)-yl]-5-methyl-1,3-oxazol-4-yl} propan-2-ol], which IC50 [1] is on record?
Its IC50 is 312 nM.

What about the IC50 [2] of the same molecule?
The IC50 was over 10000 nM.

How did the IC50 [1] turn out when `Cc1oc(N2CC3CN(C(=O)c4cccnc4CC(F)(F)F)CC3C2)nc1C(C)(C)O` (stereo not drawn) [Example 10] was run?
Its IC50 is 46 nM.

What about the IC50 [2] of the same molecule?
Its IC50 is over 10000 nM.

What does the source list for `Cc1oc(N2CC3CN(C(=O)c4ccccc4C4CC4)CC3C2)nc1C(C)(C)O` (stereo not drawn) [Example 11, 2-(2-{5-[(2-cyclopropylphenyl)carbonyl]hexahydropyrrolo[3,4-c]pyrrol-2(1H)-yl}-5-methyl-1,3-oxazol-4-yl)propan-2-ol]?
IC50 [1]: 87 nM; IC50 [2]: > 10000 nM

For `Cc1oc(N2CC3CN(C(=O)c4ccccc4C4CCC4)CC3C2)nc1C(C)(C)O` (stereo not drawn) [Example 12, 2-(2-{5-[(2-cyclobutylphenyl)carbonyl]hexahydropyrrolo[3,4-c]pyrrol-2(1H)-yl}-5-methyl-1,3-oxazol-4-yl)propan-2-ol], which IC50 [1] is on record?
Its IC50 is 23 nM.

And the IC50 [2]?
Its IC50 is 5300 nM.

What does the source list for `Cc1oc(N2CC3CN(C(=O)c4ccccc4N4CCCC4)CC3C2)nc1C(C)(C)O` (stereo not drawn) [Example 13, 2-(5-methyl-2-{5-[(2-pyrrolidin-1-ylphenyl)carbonyl]hexahydropyrrolo [3,4-c]pyrrol-2(1H)-yl}-1,3-oxazol-4-yl)propan-2-ol]?
IC50 [1]: 49 nM; IC50 [2]: > 10000 nM

Which results are given for `Cc1oc(N2CC3CN(C(=O)c4ccccc4-n4cccn4)CC3C2)nc1C(C)(C)O` (stereo not drawn) [Example 14, 2-{5-methyl-2-[5-{(2-(1H-pyrazol-1-yl)phenyl]carbonyl}hexahydropyrrolo [3,4-c]pyrrol-2(1H)-yl]-1,3-oxazol-4-yl}propan-2-ol]?
IC50 [1]: 72 nM; IC50 [2]: > 10000 nM

What does the source list for `Cc1oc(N2CC3CN(C(=O)c4ccccc4-n4ncnn4)CC3C2)nc1C(C)(C)O` (stereo not drawn) [Example 15, 2-{5-methyl-2-[5-{[2-(2H-tetrazol-2-yl)phenyl]carbonyl}hexahydropyrrolo [3,4-c]pyrrol-2(1H)-yl]-1,3-oxazol-4-yl}propan-2-ol]?
IC50 [1]: 65 nM; IC50 [2]: > 10000 nM

Which results are given for `Cc1oc(N2CC3CN(C(=O)c4ccc(F)cc4-n4nccn4)CC3C2)nc1C(C)(C)O` (stereo not drawn) [Example 16, 2-{2-[5-{[4-fluoro-2-(2H-1,2,3-triazol-2-yl)phenyl]carbonyl}hexahydropyrrolo [3,4-c]pyrrol-2(1H)-yl]-5-methyl-1,3-oxazol-4-yl}propan-2-ol]?
IC50 [1]: 32 nM; IC50 [2]: 3070 nM

With `Cc1oc(N2CC3CN(C(=O)c4ncccc4-n4nccn4)CC3C2)nc1C(C)(C)O` (stereo not drawn) [Example 17, 2-{5-methyl-2-[5-{(3-(2H-1,2,3-triazol-2-yl)pyridin-2-yl]carbonyl}hexahydropyrrolo[3,4-c]pyrrol-2(1H)-yl]-1,3-oxazol-4-yl}propan-2-ol] as the molecule, how does the IC50 [1] read?
The IC50 was 84 nM.

What about the IC50 [2] of the same molecule?
The IC50 was over 10000 nM.

For `Cc1oc(N2CC3CN(C(=O)c4cccnc4-n4cccn4)CC3C2)nc1C(C)(C)O` (stereo not drawn) [Example 18, 2-{5-methyl-2-[5-{[2-(1H-pyrazol-1-yl)pyridin-3-yl]carbonyl}hexahydropyrrolo [3,4-c]pyrrol-2(1H)-yl]-1,3-oxazol-4-yl}propan-2-ol], which IC50 [1] is on record?
Its IC50 is 35 nM.

What about the IC50 [2] of the same molecule?
The IC50 was 9850 nM.

Which IC50 [1] does the source give for `Cc1oc(N2CC3CN(C(=O)c4cccnc4-c4ccccc4)CC3C2)nc1C(C)(C)O` (stereo not drawn) [Example 19, 2-(5-methyl-2-{5-[(2-phenylpyridin-3-yl)carbonyl]hexahydropyrrolo [3,4-c]pyrrol-2(1H)-yl}-1,3-oxazol-4-yl)propan-2-ol] here?
The IC50 was 60 nM.

What about the IC50 [2] of the same molecule?
Its IC50 is over 10000 nM.

`Cc1oc(N2CC3CN(C(=O)c4nccnc4N4CCCC4)CC3C2)nc1C(C)(C)O` (stereo not drawn) [Example 20, 2-(5-methyl-2-{5-[(3-pyrrolidin-1-ylpyrazin-2-yl)carbonyl]hexahydropyrrolo[3,4-c]pyrrol-2(1H)-yl}-1,3-oxazol-4-yl) propan-2-ol] was tested. Which IC50 [1] did it give?
The IC50 was 252 nM.

What about the IC50 [2] of the same molecule?
The IC50 was over 10000 nM.

What does the source list for `Cc1oc(N2CC3CN(C(=O)c4nccnc4-n4cccn4)CC3C2)nc1C(C)(C)O` (stereo not drawn) [Example 21, 2-{5-methyl-2-[5-{[3-(1H-pyrazol-1-yl)pyrazin-2-yl]carbonyl}hexahydropyrrolo[3,4-c]pyrrol-2(1H)-yl]-1,3-oxazol-4-yl} propan-2-ol]?
IC50 [1]: 112 nM; IC50 [2]: > 10000 nM

With `Cc1oc(N2CC3CN(C(=O)c4ccccc4OC(F)F)CC3C2)nc1C(C)(C)O` (stereo not drawn) [Example 22, 2-{2-[5-{[2-(difluoromethoxy)phenyl]carbonyl}hexahydropyrrolo[3,4-c]pyrrol-2(1H)-yl]-5-methyl-1,3-oxazol-4-yl} propan-2-ol] as the molecule, how does the IC50 [1] read?
Its IC50 is 101 nM.

What about the IC50 [2] of the same molecule?
The IC50 was over 10000 nM.

How did the IC50 [1] turn out when `Cc1oc(N2CC3CN(C(=O)c4ccccc4CC(F)(F)F)CC3C2)nc1C(C)(C)O` (stereo not drawn) [Example 23, 2-{5-methyl-2-[5-{(2-(2,2,2-trifluoroethyl)phenyl]carbonyl}hexahydropyrrolo[3,4-c]pyrrol-2(1H)-yl]-1,3-oxazol-4-yl} propan-2-ol] was run?
The IC50 was 230 nM.

And the IC50 [2]?
The IC50 was over 10000 nM.

With `Cc1oc(N2CC3CN(C(=O)c4ccccc4C4CC4(F)F)CC3C2)nc1C(C)(C)O` (stereo not drawn) [Example 24, 2-{2-[5-{[2-(2,2-difluorocyclopropyl)phenyl]carbonyl}hexahydropyrrolo[3,4-c]pyrrol-2(1H)-yl]-5-methyl-1,3-oxazol-4-yl}propan-2-ol] as the molecule, how does the IC50 [1] read?
The IC50 was 22 nM.

What about the IC50 [2] of the same molecule?
Its IC50 is over 10000 nM.
